Test results reported in patent US11672786B2, “Methods of treating diseases associated with repeat instability” (The Hospital for Sick Children, priority 2016, dated 2023).
“And” between values parts separate entries of the source, which are not always exact repeats. Equal entries are not always repeated.

Tested on: HT1080-(CAG)850 contact inhibition
Test: small-pool PCR repeat instability, non-proliferating HT1080-(CAG)850 cells under contact inhibition
Type: cell-based, human
Conditions: 50 uM NA, 30 days
Protocol: The construction of the HT1080-(CAG)850 cell model was described previously (Sathasivam et al., 1997, Hum. Genet., 99:692-5). Briefly, HT1080 (ATCC) human fibrosarcoma cells were co-transfected with a plasmid (LC15-R) containing 800-850 (CTG)●(CAG) repeats (Nakatani et al., 2005, Nat. Chem. Biol., 1:39-43) and a plasmid encoding PhiC31 integrase. Transfection was performed with a Nucleofector (Lonza, Basel, Switzerland), and stably transfected clones were selected with puromycin. […] The HT1080-non-transcribing (CAG)850 cell model was established by transfecting a plasmid modified from pLC16 by inserting an additional SV40 polyadenylation signal downstream of the repeats (in addition to the original polyadenylation signals located upstream of the repeats), so that CAG/CTG repeats are floxed by transcription-terminator elements. The AttB-PhiC31 system has been widely used for single copy integration. […] The HT1080 model cells and an HD primary fibroblast cell line, GM09197 (Coriell Biorepository) with a large expanded allele of 180 CAG repeats and a non-expanded allele of 23 repeats (Sathasivam et al., 1997, Hum. Genet., 99:[…]), the HD primary fibroblast cell line, GM02191 (Coreill Biorepository) with an expanded allele of 43 CAG repeats and a non-expanded allele of 19 repeats, were cultured at 37° C. with 5% CO2 in Dulbecco's modified Eagle's medium supplemented with 10% fetal bovine serum and 1% penicillin/streptomycin. Cells were treated with or without continuous exposure to 50-μM NA for 30 days (HT1080 cells) or for 40 days (fibroblast cells). For experiments on non-proliferating cells, HT1080 cells were grown to confluence and then treated for the same period. WST-1 assay was performed according to the manufacturer's instructions (Roche, Basel, Switzerland). All cell lines were tested to be free of Mycoplasma. Three biological replicates were performed for each experiment.
Proliferation was inhibited by growth under contact inhibition and serum starvation, as previously performed. Degree of arrest from proliferation was assessed in living cells by counting BrdU positive cells after 24 hrs incubation with BrdU in proliferating or contact-inhibited (and serum starved) HT1080-(CAG)850 cells. The percentage of BrdU positive cells was 92.6% in proliferating cells and 8.17% in contact-inhibited cells. Although a small portion of HT1080-(CAG)850 cells were still proliferating even under contact-inhibition and serum starvation, the ratio is very small. Based on a calculation how many cells derive from a single cell after 30 days (the period that was studied) (proliferating, 1.926^30=348653546.6; contact inhibition, 1.0817^30=10.55), the effect of proliferation in contact-inhibited cells can be ignored.
Genomic DNA was extracted from HT1080-(CAG)850 clones and HD primary fibroblasts using the Gentra Puregene Cell Kit (Qiagen, Valencia, Calif.). The expanded (CTG)●(CAG) repeats were sized by small-pool PCR (sp-PCR) followed by Southern blot as described previously (Sathasivam et al., 1997, Hum. Genet., 99:692-5). For HT1080 models, small-pool PCR (spPCR) was performed with the input of 1.4-1.7 genome equivalents. The repeat size difference in the models is, at most, 3000 base-pairs, therefore, being strictly conservative, a bias toward amplifying the shorter allele can be possible, even under optimized PCR conditions described herein. For HD primary fibroblasts, sp-PCR & Southern blots were performed as described previously with slight modifications (Tome et al., 2013, PLoS Genet., 9:e1003280). Briefly, the PCR primers listed in Table 1 were used, and blots were hybridized with a DIG-labeled (CAG)7 locked nucleic acid probe (Nakamori et al. 2009, Neuromuscul. Disord., 19:759-62).

[1] = single experiments Ex 1-3, cut-off ±25 repeats

naphthyridine-azaquinolone
% Contraction (Total): 53.3% | % Expansion (Total): 16.6% | % Unchanged (Total): 30.2% | Average Change of Repeat Size (Total): −90.9 number of repeats | % Unchanged (single experiments Ex 1-3): 34.9% and 25.0% and 30.0% | % Contraction [1]: 49.2% and 57.1% and 54.0% | % Expansion [1]: 15.9% and 17.9% and 16.0%
